Laboratory results as given in PubChem BioAssay (NCI).
In brackets after ≈: the same amount, converted by molar mass.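 Five compound concentrations were applied to cells in 96-well plates for 48 hours; endpoints were derived by simple linear interpolation of the resulting dose-response curve. The concentration for 50% growth inhibition is given as GI50. The concentration for full growth arrest is given as TGI.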

Key:
Assay in all cases: NCI anticancer screen, dose series, 48 h
DMS 273 small cell lung = system: DMS 273 small cell lung
LXFL 529 NSCLC = system: LXFL 529 NSCLC
M19-MEL melanoma = system: M19-MEL melanoma
XF 498 CNS = system: XF 498 CNS
RXF 393 renal = system: RXF 393 renal
DU-145 prostate = system: DU-145 prostate
MDA-MB-231 breast = system: MDA-MB-231 breast
MDA-MB-435 = system: MDA-MB-435
MDA-N = system: MDA-N
NCI/ADR-RES ovarian = system: NCI/ADR-RES ovarian
T-47D breast = system: T-47D breast
HOP-18 NSCLC = system: HOP-18 NSCLC
BT-549 breast = system: BT-549 breast

For `O=C1CC2CC3OC3[C@H]3c4cc5c(cc4C(=O)N1C23)OCO5` (stereo partly drawn), the TGI (DMS 273 small cell lung) was > 100 µM, the TGI (LXFL 529 NSCLC) was > 100 µM and the TGI (M19-MEL melanoma) was > 100 µM. The TGI (XF 498 CNS) was > 100 µM.

`O=C(N/N=C/c1cc(Cl)cc(Cl)c1[O-])c1ccccc1O.O=C(N/N=C/c1cc(Cl)cc(Cl)c1[O-])c1ccccc1O.[Co+2]` was tested, and the TGI (RXF 393 renal) was 8.46 µM.

In the case of `CCP(=O)(CC)C(Cl)Cl`, the TGI (DU-145 prostate) is reported as > 100 µM, the TGI (MDA-MB-231 breast) is reported as > 100 µM and the TGI (MDA-MB-435) is reported as > 100 µM. The TGI (MDA-N) was > 100 µM, the TGI (NCI/ADR-RES ovarian) was > 100 µM and the TGI (T-47D breast) was > 100 µM.

`CC(=O)Nc1ccc(C(=O)NN2C(=O)C(Cl)/C2=C/c2ccco2)cc1` (stereo not drawn) was tested, and the TGI (HOP-18 NSCLC) was > 100 µM, the TGI (LXFL 529 NSCLC) was > 100 µM and the TGI (M19-MEL melanoma) was > 100 µM.

`CC(=O)c1c(C)nc(SSc2nc(C)c(C(C)=O)c(-c3ccc(Cl)cc3)c2C#N)c(C#N)c1-c1ccc(Cl)cc1` showed a GI50 (BT-549 breast) of 38.4 µg/mL (≈ 63.6 µM), a TGI (BT-549 breast) of 97.2 µg/mL (≈ 161 µM) and a GI50 (DU-145 prostate) of 140 µg/mL (≈ 232 µM). For the same molecule, the TGI (DU-145 prostate) was > 150 µg/mL, the GI50 (MDA-MB-231 breast) was 34.4 µg/mL (≈ 56.9 µM) and the TGI (MDA-MB-231 breast) was 103 µg/mL. The GI50 (MDA-MB-435) was > 150 µg/mL, the TGI (MDA-MB-435) was > 150 µg/mL and the GI50 (NCI/ADR-RES ovarian) was 118 µg/mL (≈ 196 µM). For the same molecule, the TGI (NCI/ADR-RES ovarian) was > 150 µg/mL, the GI50 (RXF 393 renal) was 22.5 µg/mL (≈ 37.2 µM) and the TGI (RXF 393 renal) was 78.4 µg/mL. For the same molecule, the GI50 (T-47D breast) was 36.1 µg/mL (≈ 59.8 µM) and the TGI (T-47D breast) was > 150 µg/mL.
